# Experimental data: US10766869B2, “Triazoles for the treatment of demyelinating dieases” (Vertex Pharmaceuticals Incorporated, priority 2015, dated 2020)
# System: primary rat mixed cortical cells
# Test: In vitro myelination assay (MBP positive myelin strands, fold myelin pixels above background)
# Format: cell-based
# Settings: Rattus norvegicus, relative to baseline of no added compound, read-out: Fold myelin pixels above background; for fold induction at 1 µM: 1.0 μM compound; for fold induction at 10 µM: 10.0 μM compound
# Summary of the method: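 Fourteen-day treatment of primary P1 rat mixed cortical cultures, re-dosed at days 6 and 10, at 1.0 μM and 10.0 μM. MBP immunofluorescence was imaged at 10× and myelin strands quantified by software, normalised to untreated wells as fold above background.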
smiles,measurement,value
"FC(F)c1cccc(-n2cnc(Nc3cc(C(F)F)cc(N4CC(N5CCOCC5)C4)n3)n2)c1 [Compound 756, 4-(difluoromethyl)-N-[1-[3-(difluoromethyl)phenyl]-1,2,4-triazol-3-yl]-6-(3-morpholinoazetidin-1-yl)pyridin-2-amine]",fold induction at 1 µM,1 to 10
same,fold induction at 10 µM,10 to 100
"Cc1cc(Nc2ncn(-c3cc(F)cc(C(F)(F)F)c3)n2)cc(N2CCN(C3COC3)CC2)c1 [Compound 757, 1-[3-fluoro-5-(trifluoromethyl)phenyl]-N-[3-methyl-5-[4-(oxetan-3-yl)piperazin-1-yl]phenyl]-1,2,4-triazol-3-amine]",fold induction at 1 µM,10 to 100
same,fold induction at 10 µM,10 to 100
"COc1cc(Nc2ncn(-c3ccc(Cl)c(F)c3)n2)nc(N2CCN(C3COC3)CC2)c1 [Compound 758, N-[1-(4-chloro-3-fluoro-phenyl)-1,2,4-triazol-3-yl]-4-methoxy-6-[4-(oxetan-3-yl)piperazin-1-yl]pyridin-2-amine]",fold induction at 1 µM,10 to 100
same,fold induction at 10 µM,10 to 100
"Cc1cc(Nc2ncn(-c3cccc(C#N)c3)n2)cc(N2CCN(C3COC3)CC2)c1 [Compound 759, 3-[3-[3-methyl-5-[4-(oxetan-3-yl)piperazin-1-yl]anilino]-1,2,4-triazol-1-yl]benzonitrile]",fold induction at 1 µM,1 to 10
same,fold induction at 10 µM,1 to 10
"Fc1cc(F)cc(-n2cnc(Nc3cc(N4CCN(C5COC5)CC4)nc(C(F)(F)F)c3)n2)c1 [Compound 760, N-[1-(3,5-difluorophenyl)-1,2,4-triazol-3-yl]-2-[4-(oxetan-3-yl)piperazin-1-yl]-6-(trifluoromethyl)pyridin-4-amine]",fold induction at 1 µM,1 to 10
same,fold induction at 10 µM,≤ 1
"CCc1cc(Nc2ncn(-c3ccc(C)c(F)c3)n2)cc(N2CCN(C3COC3)CC2)c1 [Compound 761, N-[3-ethyl-5-[4-(oxetan-3-yl)piperazin-1-yl]phenyl]-1-(3-fluoro-4-methyl-phenyl)-1,2,4-triazol-3-amine]",fold induction at 1 µM,1 to 10
same,fold induction at 10 µM,≤ 1
"CCc1cc(Nc2ncn(-c3ccc(C#N)cc3)n2)cc(N2CCN(C3COC3)CC2)c1 [Compound 762, 4-[3-[3-ethyl-5-[4-(oxetan-3-yl)piperazin-1-yl]anilino]-1,2,4-triazol-1-yl]benzonitrile]",fold induction at 1 µM,≤ 1
same,fold induction at 10 µM,≤ 1
"N#Cc1cc(Nc2ncn(-c3cccnc3)n2)cc(N2CCOCC2)c1 [Compound 763, 3-morpholino-5-[[1-(3-pyridyl)-1,2,4-triazol-3-yl]amino]benzonitrile]",fold induction at 1 µM,10 to 100
same,fold induction at 10 µM,10 to 100
"COC1CCCN(c2cc(C)cc(Nc3ncn(-c4cc(F)cc(F)c4)n3)n2)C1 (stereo not shown) [Compound 764, N-[1-(3,5-difluorophenyl)-1,2,4-triazol-3-yl]-6-(3-methoxy-1-piperidyl)-4-methyl-pyridin-2-amine]",fold induction at 1 µM,1 to 10
same,fold induction at 10 µM,1 to 10
"Cc1cc(Nc2ncn(-c3cc(F)cc(F)c3)n2)c(F)c(NC2CCOC2)c1 (stereo not shown) [Compound 765, N3-[1-(3,5-difluorophenyl)-1,2,4-triazol-3-yl]-2-fluoro-5-methyl-N1-tetrahydrofuran-3-yl-benzene-1,3-diamine]",fold induction at 1 µM,10 to 100
same,fold induction at 10 µM,1 to 10
"COCCNc1cc(F)cc(-n2cnc(Nc3cc(C)cc(N4CC(F)C4)c3)n2)c1 [Compound 766, N-[3-(3-fluoroazetidin-1-yl)-5-methyl-phenyl]-1-[3-fluoro-5-(2-methoxyethylamino)phenyl]-1,2,4-triazol-3-amine]",fold induction at 1 µM,1 to 10
same,fold induction at 10 µM,≤ 1
"Cc1cc(Nc2ncn(-c3ccc(C)c(Cl)c3)n2)cc(N2CCN(C3COC3)CC2)c1 [Compound 767, 1-(3-chloro-4-methyl-phenyl)-N-[3-methyl-5-[4-(oxetan-3-yl)piperazin-1-yl]phenyl]-1,2,4-triazol-3-amine]",fold induction at 1 µM,1 to 10
same,fold induction at 10 µM,10 to 100
"Cc1cc(Nc2ncn(-c3cccc(C(F)F)c3)n2)nc(N2CC(N3CCOCC3)C2)c1 [Compound 768, N-[1-[3-(difluoromethyl)phenyl]-1,2,4-triazol-3-yl]-4-methyl-6-(3-morpholinoazetidin-1-yl)pyridin-2-amine]",fold induction at 1 µM,≤ 1
same,fold induction at 10 µM,1 to 10
"Cc1cc(C#CC2CC2)cc(Nc2ncn(-c3cccc(F)c3)n2)c1 [Compound 769, N-[3-(2-cyclopropylethynyl)-5-methyl-phenyl]-1-(3-fluorophenyl)-1,2,4-triazol-3-amine]",fold induction at 1 µM,1 to 10
same,fold induction at 10 µM,≤ 1
"Fc1ccc(-n2cnc(Nc3cc(C(F)(F)F)cc(N4CCOCC4)n3)n2)cc1F [Compound 770, N-[1-(3,4-difluorophenyl)-1,2,4-triazol-3-yl]-6-morpholino-4-(trifluoromethyl)pyridin-2-amine]",fold induction at 1 µM,10 to 100
same,fold induction at 10 µM,10 to 100
"Cc1cc(Nc2ncn(-c3cc(F)cc(F)c3)n2)cc(N2CCN(C)C(C)(C)C2)c1 [Compound 771, 1-(3,5-difluorophenyl)-N-[3-methyl-5-(3,3,4-trimethylpiperazin-1-yl)phenyl]-1,2,4-triazol-3-amine]",fold induction at 1 µM,10 to 100
same,fold induction at 10 µM,≤ 1
"Cc1cc(Nc2ncn(-c3cc(F)cc(F)c3)n2)cc(N2CCC(N3CCN(C)CC3)CC2)c1 [Compound 772, 1-(3,5-difluorophenyl)-N-[3-methyl-5-[4-(4-methylpiperazin-1-yl)-1-piperidyl]phenyl]-1,2,4-triazol-3-amine]",fold induction at 1 µM,1 to 10
same,fold induction at 10 µM,≤ 1
"Cc1cc(Nc2ncn(-c3cc(F)cc(F)c3)n2)cc(N2CC(C(=O)N3CCCC3)C2)c1 [Compound 773, [1-[3-[[1-(3,5-difluorophenyl)-1,2,4-triazol-3-yl]amino]-5-methyl-phenyl]azetidin-3-yl]-pyrrolidin-1-yl-methanone]",fold induction at 1 µM,10 to 100
same,fold induction at 10 µM,≤ 1
"Cc1cc(Nc2ncn(-c3cc(F)cc(F)c3)n2)nc(C2=CCOCC2)c1 [Compound 774, N-[1-(3,5-difluorophenyl)-1,2,4-triazol-3-yl]-6-(3,6-dihydro-2H-pyran-4-yl)-4-methyl-pyridin-2-amine]",fold induction at 1 µM,1 to 10
same,fold induction at 10 µM,10 to 100
"OC1(c2cc(F)cc(Nc3ncn(-c4cc(F)cc(F)c4)n3)c2)COC1 [Compound 775, 3-[3-[[1-(3,5-difluorophenyl)-1,2,4-triazol-3-yl]amino]-5-fluoro-phenyl]oxetan-3-ol]",fold induction at 1 µM,1 to 10
same,fold induction at 10 µM,10 to 100
"Cc1cc(Nc2ncn(-c3ccnc(F)c3)n2)cc(N2CCCN(C3COC3)CC2)c1 [Compound 776, 1-(2-fluoro-4-pyridyl)-N-[3-methyl-5-[4-(oxetan-3-yl)-1,4-diazepan-1-yl]phenyl]-1,2,4-triazol-3-amine]",fold induction at 1 µM,10 to 100
same,fold induction at 10 µM,≤ 1
"Fc1cc(F)cc(-n2cnc(Nc3cc(C(F)F)cc(N4CCCC5(COC5)C4)n3)n2)c1 [Compound 777, 4-(difluoromethyl)-N-[1-(3,5-difluorophenyl)-1,2,4-triazol-3-yl]-6-(2-oxa-8-azaspiro[3.5]nonan-8-yl)pyridin-2-amine]",fold induction at 1 µM,1 to 10
same,fold induction at 10 µM,10 to 100
"Cc1cc(Nc2ncn(-c3ccc(F)c(F)c3)n2)cc(OC2CCOC2)c1 (stereo not shown) [Compound 778, 1-(3,4-difluorophenyl)-N-(3-methyl-5-tetrahydrofuran-3-yloxy-phenyl)-1,2,4-triazol-3-amine]",fold induction at 1 µM,10 to 100
same,fold induction at 10 µM,1 to 10
